Blank lines part the entries; values can stand above or below the compound they belong to.
Experiments:
isolated ileal villi = test: Ischemic injury (100% N2) and intracellular calcium (FLUO-4) in isolated ileal villi; format: cell-based; settings: 5 min exposure to 100 nM compound A; rat ileal villi; without calcimimetic sustained increase greater than 200% of initial value
Experimental: Male (Casr^+/+;Gcm2^−/−) or CaSR knockout (Casr^−/−;Gcm2^−/−) mice weighing 22-27 grams (upper panel) or male Sprague-Dawley rats weighing 220-275 grams (lower panel) were allowed free access to water and food prior to experimentation. The animals were exposed to an overdose of isofluorane and the ileum was removed. The ileum was then cut into 4 cm long sections and each section was placed in EDTA (20 mM) to isolate individual villi for 20 minutes at 37° C. After this digestion period the villi were placed in a HEPES-Ringer Solution that was bubbled with 100% O2 and were kept in this solution at 4° C. until use. All mice were generated at Yale University from a breeding colony. Male Sprague-Dawley rats were purchased from Charles River Laboratories Inc. (Wilmington, Mass.). […]
Following isolation individual villi were placed on coverslips and loaded with the calcium indicator dye FLUO4-AM (10 μM) (Invitrogen, Oregon USA) for 15 minutes. […] Images were recorded for 20-30 minutes using DIC optics at 60× Magnification with a Cooled CCD camera and Metamorph Image acquisition and analysis software.
The increase in intracellular Ca^2+ is plotted as arbitrary fluorescent units (AFU) with higher numbers of AFU representing an increase in intracellular Ca^2+. The data for each villi with a minimum of 7 cells per villi were then pooled and recorded. […]

colonic crypts = test: Ischemic injury (100% N2) and intracellular calcium in colonic crypts; format: cell-based; settings: 5 min prepulse with 100 nM compound A; rat colonic crypts
ileal villi = test: Ischemic injury and Trypan Blue exclusion in ileal villi; format: cell-based, rat; settings: 5 min of 100 nM compound A; 30 min 100% N2; without calcimimetic greater than 60% uptake
Experimental: Individual villi were transferred to the stage of an inverted microscope where they were perfused with 37° C. HEPES Ringer solution that was bubbled with 100% O2. After the 5 minute equilibration period villi were exposed to a HEPES Ringer solution that had been bubbled with 100% N2. In one series Trypan Blue a non membrane permeant dye used for assessment of membrane integrity was added to the bath (0.1 mM Trypan Blue concentration dissolved directly into the bath solution, either 100% O2 or 100% N2). Images were then recorded at sequential time points using DIC optics at 60× Magnification using a Cooled CCD camera and Metafluor Image acquisition and analysis software. Final data was acquired at 30 min from start of perfusion for all groups. The number of Trypan blue positive cells were counted and a number recorded for each villi under each condition. After 30 minutes of exposure to each experimental solution the number of Trypan Blue positive cells was recorded from a blinded observer. The final number of positive cells for each villi was recorded. The data for each villi with a minimum of 7 cells per villi were then pooled and recorded. A numeric mean was then given for the summation of all the cellular data from each villi and from each animal. For the studies presented there were 7 cells per villi, 5 villi per animal and 5 animals in each group. […]

[1] = tested on: wound injury RNA biomarkers (wound tissue); test: Wound injury RNA biomarkers by quantitative PCR in full-thickness cutaneous wound injury model; format: in vivo, mouse; settings: 3 mg/kg, drug over vehicle, n=5
Experimental: See Zoog S J et al. Cytometry A. (2009) March; 75(3): 189-98. The impact of calcimimetic treatment on gene mRNA biomarkers was assessed by quantitative PCR. For wound injury RNA biomarker exploration, female balb/c mice were randomly divided and treated with Compound B (3 mg/kg, n=5) or vehicle (20% Captisol in water, n=5) the day before cutaneous wounding and each subsequent day after until the termination of the studies. All mice received a 3 mm diameter full-thickness punch wound on day zero. On day 1 and day 3 post-injury, a 6 mm diameter skin biopsy was made over the original 3 mm wound and the wound tissue collected for RNA analysis. RNA was isolated using the Trizol reagent (Invitrogen) following manufacturer's instruction. 10 ng of total RNA was added to a single well at the final volume of 10 ul in 1×ABI (Applied Biosystems) Taqman qRT-PCR mixture and run on an ABI 7900 HT Real Time PCR system. For data analysis, the gene expression profile of each sample was first determined based on a control gene, Hprt1, using ABI SDS2.1 software. The signal of each sample was normalized further with Actb, Gapdh, Hprt1, and Rpl27. The biomarkers of wound injury, inflammation and repair that were dynamically affected by Compound B on day 1 and day 3 compared to vehicle control are shown in Table 2. Calcimimetic Compound B affected inflammatory genes, and genes involved in remodeling and repair. Specifically, key inflammatory cytokines such as IL-1a and TNF that may promote cell death were affected by Compound B. Genes involved in inflammation and repair that were affected included: tryptase, TIMP-3, and MMP13. Genes involved in promoting cell survival included: VEGFa, TGFb1, eNOS, and PDGFRb. Immune cell related genes included: M-CSF, TLR-7 and CD3. Other relevant genes included: ITGA3 and PRG-1. […] Table 2 represents the fold increase of drug-induced quantitative change in the gene over vehicle as determined by PCR analysis (n=5 in each drug or vehicle treated cohort).

[2] = Plasma level of calcimimetic in cutaneous wound study; format: in vivo, mouse; settings: Compound B 3 mg/kg daily, female balb/c mice, over the course of the study
serum total calcium = test: Serum total calcium in cutaneous wound study; format: in vivo, mouse; settings: Compound B 3 mg/kg daily, female balb/c mice; vehicle 10.2-10.9 mg/dL

SMILES: COc1cccc([C@@H](C)NCCCc2ccccc2Cl)c1 [Compound A, 3-(2-chlorophenyl)-N-((1R)-1-(3-(methyloxy)phenyl)ethyl)-1-propanamine]
- change in intracellular calcium following exposure to 100% N2 (isolated ileal villi): no increase in calcium
- change in intracellular calcium following exposure to 100% N2 (colonic crypts): no increase in calcium
- cellular uptake of Trypan Blue (ileal villi): prevented uptake of Trypan Blue

- average plasma level [2]: 20 to 36 ng/mL
SMILES: COc1ccc(CNC(C)c2ccccc2)cc1-c1ccc(C(F)(F)F)cc1 (centres unmarked) [Compound B, N-((6-(methyloxy)-4′-(trifluoromethyl)-1,1′-biphenyl-3-yl)methyl)-1-phenylethanamine]
- Fold Increase (C/V) CD3 RNA ([1]; Day 1 post-injury): 2.90 fold
- Fold Increase (C/V) IL-1a RNA ([1]; Day 1 post-injury): 1.78 fold
- Fold Increase (C/V) ITGA3 RNA ([1]; Day 1 post-injury): 4.89 fold
- Fold Increase (C/V) M-CSF RNA ([1]; Day 1 post-injury): 2.13 fold
- Fold Increase (C/V) MMP13 RNA ([1]; Day 1 post-injury): 2.78 fold
- Fold Increase (C/V) PDGFRb(CD140) RNA ([1]; Day 1 post-injury): 0.67 fold
- Fold Increase (C/V) PRG-1 RNA ([1]; Day 1 post-injury): 3.03 fold
- Fold Increase (C/V) TGFB1 RNA ([1]; Day 1 post-injury): 4.17 fold
- Fold Increase (C/V) TIMP-3 RNA ([1]; Day 1 post-injury): 4.48 fold
- Fold Increase (C/V) TLR-7 RNA ([1]; Day 1 post-injury): 2.20 fold
- Fold Increase (C/V) TNFR(p75) RNA ([1]; Day 1 post-injury): 1.62 fold
- Fold Increase (C/V) TNFalpha RNA ([1]; Day 1 post-injury): 1.26 fold
- Fold Increase (C/V) Tryptase b2 (MCP-6) RNA ([1]; Day 1 post-injury): 1.02 fold
- Fold Increase (C/V) VEGFa RNA ([1]; Day 1 post-injury): 1.53 fold
- Fold Increase (C/V) eNOS RNA ([1]; Day 1 post-injury): 5.41 fold
- Fold Increase (C/V) CD3 RNA ([1]; Day 3 post-injury): 0.88 fold
- Fold Increase (C/V) IL-1a RNA ([1]; Day 3 post-injury): 3.44 fold
- Fold Increase (C/V) ITGA3 RNA ([1]; Day 3 post-injury): 1.78 fold
- Fold Increase (C/V) M-CSF RNA ([1]; Day 3 post-injury): 2.13 fold
- Fold Increase (C/V) MMP13 RNA ([1]; Day 3 post-injury): 1.90 fold
- Fold Increase (C/V) PDGFRb(CD140) RNA ([1]; Day 3 post-injury): 1.42 fold
- Fold Increase (C/V) PRG-1 RNA ([1]; Day 3 post-injury): 4.12 fold
- Fold Increase (C/V) TGFB1 RNA ([1]; Day 3 post-injury): 0.92 fold
- Fold Increase (C/V) TIMP-3 RNA ([1]; Day 3 post-injury): 1.62 fold
- Fold Increase (C/V) TLR-7 RNA ([1]; Day 3 post-injury): 2.39 fold
- Fold Increase (C/V) TNFR(p75) RNA ([1]; Day 3 post-injury): 1.62 fold
- Fold Increase (C/V) TNFalpha RNA ([1]; Day 3 post-injury): 3.83 fold
- Fold Increase (C/V) Tryptase b2 (MCP-6) RNA ([1]; Day 3 post-injury): 0.95 fold
- Fold Increase (C/V) VEGFa RNA ([1]; Day 3 post-injury): 0.61 fold
- Fold Increase (C/V) eNOS RNA ([1]; Day 3 post-injury): 0.46 fold
- serum total calcium level (serum total calcium): 7.21 to 7.9 mg/dL

— US8609655B2, “Calcimimetic compound for use in the treatment of epithelial injury” (Amgen Inc., priority 2008, dated 2013)
